Read-outs that look alike come from different tables or passages of the source.
Columns and labels:
ανβ3 = ανβ3 (Homo sapiens, UniProt P05106+P06756); assay: biochemical
AR42J tumor [1] = assay: Dynamic PET, tumor uptake (SUV) in AR42J tumor-bearing nude rats; assay type: in vivo, rat; conditions: i.v. 20 to 40 MBq (BZH3, n = 5), 10 to 30 MBq (RGD4, n = 4), nude rats
Description: (§1) Irregular regions of interest were drawn manually.

[2] = as above; assay type: in vivo, rat; conditions: Wistar (nude), rat, tumor (AR42J), iv, i.v. 20 to 40 MBq (BZH3, n = 5), 10 to 30 MBq (RGD4, n = 4), nude rats, read-out: SUV (standardized uptake value) in tumor
Description: as §1

AR42J tumor [3] = conditions: AR42J tumor-bearing nude rats, n = 5 (BZH3), n = 4 (RGD4); for VB (vessel density, fractional blood volume): dynamic PET 60 min, i.v.
Description: The AR42J cell line, derived from a rat exocrine pancreas neuroendocrine tumor, was used. Cells were obtained from the European Collection of Cell Cultures and were grown in RPMI 1640 medium supplemented with 2 mmol/L glutamine and 10% fetal calf serum. Adherent cells were dislodged with trypsin/ethylenediaminetetraacetic acid (0.02%: 0.05%, w/v). For PET-studies, 5 × 10^6 cells in 200 μl RPMI without supplements were inoculated subcutaneously in the right hind leg of Wistar rats.
The study included nine AR 42 J tumor-bearing nude rats. We grouped all rats according to PET tracers (B, ^68Ga-BZH3 and R, ^68Ga-RGD4), used in dynamic PET scanning, as noted in Table 1. Dynamic PET studies were performed for 60 min after the intravenous application of 10 to 30 MBq ^68Ga-RGD4 or 20 to 40 MBq ^68Ga-BZH3, using a 28-frame protocol (ten frames of 30 s, five frames of 60 s, five frames of 120 s, and eight frames of 300 s). Two animals can be examined in parallel per scanning by a homemade injector (Figure 2). A dedicated PET-CT system (Biograph™ mCT, 128 S/X, Siemens Co, Erlangen, Germany) with an axial field of view of 21.6 cm with TrueV, operated in a three-dimensional mode, was used for all animal studies. The system provides the simultaneous acquisition of 369 transverse slices with a slice thickness of 0.6 mm. The animals were positioned in the axial plane of the system to maintain the best resolution in the center of the system. All PET images were attenuation-corrected and an image matrix of 400 × 400 pixels was used for iterative image reconstruction (voxel size 1.565 × 1.565 × 0.6 mm) based on the syngo MI PET/CT 2009C software version. After the end of the dynamic series an ultrahigh resolution CT with 85 mA, 80 kV and a pitch of 0.85 cm was performed for attenuation correction of the acquired dynamic emission data. The reconstructed images were converted to SUV images based on the formula [24]: SUV = Tissue concentration (becquerel per gram)/[injected dose ([…]))/body weight (gram)]. The SUV 55 to 60 min post-injection was used for the assessment of both tracers. The SUV images were used for all further quantitative evaluations.
Dynamic PET data were evaluated using the software package PMOD (provided courtesy of PMOD Technologies Ltd., Zuerich, Switzerland). Areas with enhanced tracer uptake on transaxial, coronal, and sagittal images were evaluated visually. A volume of interest consists of several regions of interest over the target area. Irregular regions of interest were drawn manually. A detailed quantitative evaluation of tracer kinetics requires the use of compartmental modeling. A two-tissue-compartment model was used to evaluate the dynamic studies.
In animals, a partial volume correction must be applied to the data due to the small size of the input and tumor volumes of interest (VOIs). Herein, the recovery coefficient was 0.85 for a diameter of 8 mm and 0.32 for a diameter of 3 mm based on phantom measurements as well as the recent parameter settings used with the reconstruction software. For the input function the mean values of the VOI data obtained from the heart were used. We used a preprocessing tool, which allowed a fit of the input curve by a sum of up to three decaying exponentials. The learning-machine two-tissue-compartment model was used for the fitting and provided five parameters: the transport parameters for tracer into and out of the cell, K1 and k2, the parameters for phosphorylation and dephosphorylation of intracellular tracer, k3 and k4, and the fractional blood volume, also called vessel density (VB), which reflects the amount of blood in the VOI. Following compartment analysis, we calculated the global influx of tracer from the compartment data using the formula: influx = (K1 × k3)/(k2 + k3). […] The model parameters were accepted when K1 - k4 was less than 1 and VB exceeded 0. The unit for the rate constants K1 to k4 was 1/min.

[4] = 3D fused PET-CT images; male rat
Description: The study included nine AR 42 J tumor-bearing nude rats. We grouped all rats according to PET tracers (B, ^68Ga-BZH3 and R, ^68Ga-RGD4), used in dynamic PET scanning, as noted in Table 1. Dynamic PET studies were performed for 60 min after the intravenous application of 10 to 30 MBq ^68Ga-RGD4 or 20 to 40 MBq ^68Ga-BZH3, using a 28-frame protocol (ten frames of 30 s, five frames of 60 s, five frames of 120 s, and eight frames of 300 s). Two animals can be examined in parallel per scanning by a homemade injector (Figure 2). A dedicated PET-CT system (Biograph™ mCT, 128 S/X, Siemens Co, Erlangen, Germany) with an axial field of view of 21.6 cm with TrueV, operated in a three-dimensional mode, was used for all animal studies. The system provides the simultaneous acquisition of 369 transverse slices with a slice thickness of 0.6 mm. The animals were positioned in the axial plane of the system to maintain the best resolution in the center of the system. […] The SUV images were used for all further quantitative evaluations.
Dynamic PET data were evaluated using the software package PMOD (provided courtesy of PMOD Technologies Ltd., Zuerich, Switzerland). Areas with enhanced tracer uptake on transaxial, coronal, and sagittal images were evaluated visually. […] A detailed quantitative evaluation of tracer kinetics requires the use of compartmental modeling. […]

[5] = median, between tracers P 0.05*

ανβ3, sequence (P06756 31-889 limits assumed): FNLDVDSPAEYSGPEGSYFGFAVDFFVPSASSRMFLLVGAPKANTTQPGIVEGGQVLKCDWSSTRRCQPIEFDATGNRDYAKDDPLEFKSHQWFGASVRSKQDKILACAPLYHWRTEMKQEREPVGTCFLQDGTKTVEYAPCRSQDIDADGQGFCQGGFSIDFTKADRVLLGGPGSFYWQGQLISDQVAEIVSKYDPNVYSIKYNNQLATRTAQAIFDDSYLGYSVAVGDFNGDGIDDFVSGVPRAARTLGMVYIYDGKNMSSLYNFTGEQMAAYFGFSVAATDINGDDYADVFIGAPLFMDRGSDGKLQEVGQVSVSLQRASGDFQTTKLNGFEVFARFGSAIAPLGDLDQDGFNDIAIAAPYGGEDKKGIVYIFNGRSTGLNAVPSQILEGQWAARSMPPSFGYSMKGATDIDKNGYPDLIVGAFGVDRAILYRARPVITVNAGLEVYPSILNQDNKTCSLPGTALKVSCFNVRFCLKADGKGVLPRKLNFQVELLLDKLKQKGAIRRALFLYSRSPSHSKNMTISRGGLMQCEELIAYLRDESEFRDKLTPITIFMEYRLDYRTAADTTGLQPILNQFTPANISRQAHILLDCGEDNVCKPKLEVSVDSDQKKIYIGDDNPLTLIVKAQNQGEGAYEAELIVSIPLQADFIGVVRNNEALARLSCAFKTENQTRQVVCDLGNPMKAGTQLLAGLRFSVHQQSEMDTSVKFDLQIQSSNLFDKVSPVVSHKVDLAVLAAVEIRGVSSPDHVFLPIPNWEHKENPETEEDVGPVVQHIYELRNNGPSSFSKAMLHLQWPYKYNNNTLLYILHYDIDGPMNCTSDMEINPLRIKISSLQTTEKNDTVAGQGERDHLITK
ανβ3, sequence (P06756 891-1048 partner limits assumed): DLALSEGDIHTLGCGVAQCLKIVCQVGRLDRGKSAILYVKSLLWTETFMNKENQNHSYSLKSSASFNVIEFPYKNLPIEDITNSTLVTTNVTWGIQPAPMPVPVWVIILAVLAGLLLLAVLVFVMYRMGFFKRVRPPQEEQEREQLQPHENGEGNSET
ανβ3, sequence (P05106 27-788): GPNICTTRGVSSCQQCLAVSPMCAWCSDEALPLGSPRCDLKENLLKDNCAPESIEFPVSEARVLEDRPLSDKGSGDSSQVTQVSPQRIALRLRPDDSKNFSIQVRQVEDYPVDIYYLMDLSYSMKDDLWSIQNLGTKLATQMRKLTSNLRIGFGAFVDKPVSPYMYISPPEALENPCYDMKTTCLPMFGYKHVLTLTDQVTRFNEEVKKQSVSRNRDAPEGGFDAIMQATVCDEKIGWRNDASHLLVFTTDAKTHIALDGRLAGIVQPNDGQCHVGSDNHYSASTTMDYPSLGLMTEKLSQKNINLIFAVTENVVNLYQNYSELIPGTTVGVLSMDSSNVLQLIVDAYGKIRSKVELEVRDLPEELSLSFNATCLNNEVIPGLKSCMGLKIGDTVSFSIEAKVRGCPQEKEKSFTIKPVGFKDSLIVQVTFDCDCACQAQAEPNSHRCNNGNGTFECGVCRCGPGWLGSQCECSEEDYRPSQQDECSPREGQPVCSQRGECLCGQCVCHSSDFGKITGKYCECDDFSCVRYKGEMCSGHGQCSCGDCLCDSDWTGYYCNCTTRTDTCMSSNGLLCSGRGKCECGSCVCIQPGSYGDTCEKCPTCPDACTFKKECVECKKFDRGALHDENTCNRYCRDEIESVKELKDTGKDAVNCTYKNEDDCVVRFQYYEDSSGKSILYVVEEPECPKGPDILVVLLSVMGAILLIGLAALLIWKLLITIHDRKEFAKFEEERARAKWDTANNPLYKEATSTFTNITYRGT

## N=C(N)NCCC[C@@H]1NC(=O)[C@H](CCCCNC(=O)COCCOCCNC(=O)CSC2CC(=O)N(CCCC(=O)NCCCC[C@H](NC(=O)CCCN3C(=O)CC(SCC(=O)NCCOCCOCC(=O)NCCCC[C@@H]4NC(=O)[C@@H](Cc5ccccc5)NC(=O)[C@H](CC(=O)O)NC(=O)CNC(=O)[C@H](CCCNC(=N)N)NC4=O)C3=O)C(=O)NCCCC[C@H](NC(=O)[C@H](CCCCNC(=O)CCCN3C(=O)CC(SCC(=O)NCCOCCOCC(=O)NCCCC[C@@H]4NC(=O)[C@@H](Cc5ccccc5)NC(=O)[C@H](CC(=O)O)NC(=O)CNC(=O)[C@H](CCCNC(=N)N)NC4=O)C3=O)NC(=O)CCCN3C(=O)CC(SCC(=O)NCCOCCOCC(=O)NCCCC[C@@H]4NC(=O)[C@@H](Cc5ccccc5)NC(=O)[C@H](CC(=O)O)NC(=O)CNC(=O)[C@H](CCCNC(=N)N)NC4=O)C3=O)C(=O)N[C@@H](CCCCNC(=O)CN3CCN(CC(=O)O)CCN(CC(=O)O)CCN(CC(=O)O)CC3)C(N)=O)C2=O)NC(=O)[C@@H](Cc2ccccc2)NC(=O)[C@H](CC(=O)O)NC(=O)CNC1=O (stereo partly shown) [^68Ga-RGD4, metal not drawn]
ανβ3
  IC50: 4.97 µM
AR42J tumor [1]; maximum, 55 to 60 min post-injection
  SUV (standardized uptake value) in tumor: 1.3084
AR42J tumor [1]; median, 55 (56) to 60 min post-injection, between tracers P 0.8065, listed as 68Ga-RGD tetramer
  SUV (standardized uptake value) in tumor: 0.99
AR42J tumor [1]; minimum, 55 to 60 min post-injection
  SUV (standardized uptake value) in tumor: 0.7833
[2]; mean, 55 to 60 min post-injection
  SUV: 1.02 SUV
[2]; median, 55 (56) to 60 min post-injection, between tracers P 0.8065
  SUV: 0.989 SUV
AR42J tumor [3]; maximum
  VB (vessel density, fractional blood volume): 0.0713
  K1 (transport into the cell; associated with receptor binding): 0.3195 min⁻¹
  RBP (receptor binding potential): 0.0514
  k2 (displacement from the receptor): 0.6152 min⁻¹
  k3 (cellular internalisation): 0.1352 min⁻¹
  k4 (externalization): 0.0504 min⁻¹
AR42J tumor [3]; mean
  VB (vessel density, fractional blood volume): 0.0582
  K1 (transport into the cell; associated with receptor binding): 0.2739 min⁻¹
  RBP (receptor binding potential): 0.0453
  k2 (displacement from the receptor): 0.5386 min⁻¹
  k3 (cellular internalisation): 0.1097 min⁻¹
  k4 (externalization): 0.0443 min⁻¹
AR42J tumor [3]; [5]
  VB (vessel density, fractional blood volume): 0.0574
  K1 (transport into the cell; associated with receptor binding): 0.2728 min⁻¹
  k4 (externalization): 0.0442 min⁻¹
AR42J tumor [3]; median, between tracers P 0.0275*
  RBP (receptor binding potential): 0.0442
AR42J tumor [3]; median, between tracers P 0.4624
  k2 (displacement from the receptor): 0.5721 min⁻¹
AR42J tumor [3]; median, between tracers P 0.8065
  k3 (cellular internalisation): 0.1180 min⁻¹
AR42J tumor [3]; minimum
  VB (vessel density, fractional blood volume): 0.0468
  K1 (transport into the cell; associated with receptor binding): 0.2304 min⁻¹
  RBP (receptor binding potential): 0.0414
  k2 (displacement from the receptor): 0.3952 min⁻¹
  k3 (cellular internalisation): 0.0678 min⁻¹
  k4 (externalization): 0.0382 min⁻¹
[4]
  tracer uptake in other sites: heart (exhibit for ^68Ga-RGD4), liver, kidney, urinary bladder, and testicles

From PMC3292467, “Comparison between ^68Ga-bombesin (^68Ga-BZH3) and the cRGD tetramer ^68Ga-RGD4 studies in an experimental nude rat model with a neuroendocrine pancreatic tumor cell line” (EJNMMI Research, 2011)
